In patent US20070254863A1 (priority 2006, published 2007):
Read-outs that look alike come from different tables or passages of the source.

Assays:
rat SUR2A = rat SUR2A (Rattus norvegicus, UniProt Q63563); experiment: In vitro binding affinity to rodent KATP channels: SUR2A ([3H]P1075 / [3H]glibenclamide displacement, COS cell membranes)
Protocol: Therefore, two strategies can be used to detect binding to the sulfonylurea site on SUR2A.
Membranes from COS-cells transiently expressing rat SUR2A were incubated in the presence of the radioligands with increasing concentrations of test compounds as described above. […] For each test compound four displacement curves were measured (displacement of [^3H]P1075 from the rat isoform of the wild type receptor and displacement of [^3H]glibenclamide from the rat isoform of SUR2AY1205S). Per curve 9-15 distinct concentrations were tested covering the relevant range. All measurements were repeated at least 5 times in independent experiments.
(§1) [^3H]glibenclamide (specific activity 51 Ci mmol^−1) was obtained from NEN (Dreieich, Germany). Where needed, stock solutions were prepared in dimethylsulfoxide with a final solvent concentration in the media below 1%.
(§2) SUR- or Kir6.x isoforms were used either subcloned in the pcDNA (hamster SUR1, mouse Kir6.2) or pCMV vector (rat SUR2A, SUR2B).
(§3) For transfection, the cells were incubated 4 hours in a Tris-buffered salt solution containing DNA (5-10 μg/ml) plus DEAE-dextran (1 mg/ml), 2 min in HEPES-buffered salt solution plus dimethylsulfoxide (10%) and 4 hours in DMEM-HG plus chloroquine (100 μM). Cells were then returned to DMEM-HG plus 10% FCS. […] For binding experiments, resuspended membranes (final protein concentration 5-50 μg/ml) were incubated in “Tris-buffer” (50 mM, pH 7.4) containing either [^3H]glibenclamide (final concentration 0.3 nM or 3 nM and nonspecific binding defined by 100 nM or 1 μM glibenclamide for SUR1 or SUR2Y1205S-isoforms, respectively) or [^3H]P1075 (final concentration 3 nM, nonspecific binding defined by 100 μM pinacidil) and increasing concentrations of the test compounds. The free Mg^2+ concentration were kept close to 0.7 mM. […] Incubations were carried out for 1 h at room temperature and were terminated by rapid filtration through Whatman GF/B filters.
(§4) The inhibition constant (Ki value) of the test substances was calculated from the respective IC50 value, and was stated as the negative logarithmic value thereof (pKi).

hamster SUR1 = molecular target: T1, hamster SUR1 (Cricetus cricetus, UniProt Q09427); experiment: In vitro binding affinity to rodent KATP channels: SUR1 ([3H]glibenclamide displacement, COS cell membranes); conditions: hamster SUR1 in COS cell membranes; for Ki: read-out: Affinity to SUR 1 (converted)
T1 construct: expressed in transfected cells; host or cells: COS-1 cells, transient (pcDNA vector)
Protocol: 1. In Vitro Binding Affinity of the Test Compounds to Rodent KATP Channels
Competitive binding experiments were performed to characterize the affinity of the test compounds for the binding sites for sulfonylureas and KATP channel openers (KCOS) on hamster SUR1. To assess the affinity for the sulfonylurea site, membranes from COS-cells transiently expressing hamster SUR1 were incubated in the presence of [^3H]glibenclamide with increasing concentrations of test compounds. […] For each test compound four displacement curves were measured (+/−MgATP from the human and hamster isoform). Per curve 9-15 distinct concentrations were tested covering the relevant range. All measurements were repeated at least 5 times in independent experiments.
as §1, §2, §3, §4

[1] = molecular target: human cannabinoid CB2 receptor (Homo sapiens, UniProt P34972); experiment: biochemical; type: binding
Protocol: 3. In Vitro Binding Affinity of the Test Compounds to CB2 Receptors
After incubation of a freshly prepared cell membrane preparation with the [^3H]-ligand, with or without the addition of the compounds described herein, separation of bound and free ligand is performed by filtration over glass-fiber filters. Radioactivity on the filter is measured by liquid scintillation counting.

[2] = cloned human CB2 receptor expressed in CHO cells, read-out: Affinity to CB2 (converted)
[3] = rat SUR2A in COS cell membranes

T1 sequence (Q09427 whole entry): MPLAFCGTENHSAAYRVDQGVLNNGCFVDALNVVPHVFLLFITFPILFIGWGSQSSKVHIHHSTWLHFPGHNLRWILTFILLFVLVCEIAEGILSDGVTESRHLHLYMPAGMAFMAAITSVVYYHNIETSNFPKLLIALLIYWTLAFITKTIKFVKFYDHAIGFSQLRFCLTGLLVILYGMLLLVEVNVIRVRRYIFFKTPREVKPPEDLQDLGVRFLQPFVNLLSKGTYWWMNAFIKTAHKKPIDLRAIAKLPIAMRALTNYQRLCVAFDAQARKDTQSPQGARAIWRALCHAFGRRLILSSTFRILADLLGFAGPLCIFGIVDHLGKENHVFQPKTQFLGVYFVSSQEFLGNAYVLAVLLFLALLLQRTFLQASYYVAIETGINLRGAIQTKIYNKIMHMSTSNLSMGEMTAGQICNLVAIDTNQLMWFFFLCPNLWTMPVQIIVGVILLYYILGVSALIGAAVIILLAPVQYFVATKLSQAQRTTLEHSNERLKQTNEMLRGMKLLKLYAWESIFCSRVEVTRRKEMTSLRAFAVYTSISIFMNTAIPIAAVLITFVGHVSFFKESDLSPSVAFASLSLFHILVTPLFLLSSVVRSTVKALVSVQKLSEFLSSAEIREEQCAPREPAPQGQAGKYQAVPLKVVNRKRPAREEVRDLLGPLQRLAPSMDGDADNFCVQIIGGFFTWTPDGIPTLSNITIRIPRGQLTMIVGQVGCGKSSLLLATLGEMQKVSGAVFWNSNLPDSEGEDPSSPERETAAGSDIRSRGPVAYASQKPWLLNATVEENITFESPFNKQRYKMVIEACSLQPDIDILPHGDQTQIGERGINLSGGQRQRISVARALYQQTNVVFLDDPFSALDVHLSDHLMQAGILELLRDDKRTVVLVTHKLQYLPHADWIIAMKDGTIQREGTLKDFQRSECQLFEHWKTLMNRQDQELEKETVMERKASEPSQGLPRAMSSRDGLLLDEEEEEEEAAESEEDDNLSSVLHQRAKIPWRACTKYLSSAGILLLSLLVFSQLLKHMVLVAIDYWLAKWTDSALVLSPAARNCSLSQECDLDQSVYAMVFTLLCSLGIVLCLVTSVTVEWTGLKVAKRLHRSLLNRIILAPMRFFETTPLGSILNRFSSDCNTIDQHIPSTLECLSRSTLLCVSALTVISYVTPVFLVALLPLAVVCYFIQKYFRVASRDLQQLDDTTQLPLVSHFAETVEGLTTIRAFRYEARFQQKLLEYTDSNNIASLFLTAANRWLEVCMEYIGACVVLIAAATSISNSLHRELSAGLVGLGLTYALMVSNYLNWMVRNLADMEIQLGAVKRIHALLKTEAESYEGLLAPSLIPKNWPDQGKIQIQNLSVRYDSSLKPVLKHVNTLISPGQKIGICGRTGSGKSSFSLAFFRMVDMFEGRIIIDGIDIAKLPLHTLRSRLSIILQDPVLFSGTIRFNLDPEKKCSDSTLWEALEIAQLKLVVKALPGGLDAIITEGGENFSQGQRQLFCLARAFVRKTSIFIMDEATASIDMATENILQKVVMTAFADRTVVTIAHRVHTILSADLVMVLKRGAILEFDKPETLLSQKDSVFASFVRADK
human cannabinoid CB2 receptor, sequence (P34972 whole entry): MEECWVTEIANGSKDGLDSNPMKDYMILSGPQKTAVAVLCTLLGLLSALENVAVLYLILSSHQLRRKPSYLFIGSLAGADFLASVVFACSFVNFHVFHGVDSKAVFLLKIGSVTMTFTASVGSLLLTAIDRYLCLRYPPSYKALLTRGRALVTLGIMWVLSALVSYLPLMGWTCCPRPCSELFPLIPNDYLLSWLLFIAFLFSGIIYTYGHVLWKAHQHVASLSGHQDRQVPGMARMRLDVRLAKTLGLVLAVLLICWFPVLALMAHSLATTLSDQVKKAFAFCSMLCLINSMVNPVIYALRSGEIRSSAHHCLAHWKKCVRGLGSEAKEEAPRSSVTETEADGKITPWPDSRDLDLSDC
rat SUR2A, sequence (Q63563 whole entry): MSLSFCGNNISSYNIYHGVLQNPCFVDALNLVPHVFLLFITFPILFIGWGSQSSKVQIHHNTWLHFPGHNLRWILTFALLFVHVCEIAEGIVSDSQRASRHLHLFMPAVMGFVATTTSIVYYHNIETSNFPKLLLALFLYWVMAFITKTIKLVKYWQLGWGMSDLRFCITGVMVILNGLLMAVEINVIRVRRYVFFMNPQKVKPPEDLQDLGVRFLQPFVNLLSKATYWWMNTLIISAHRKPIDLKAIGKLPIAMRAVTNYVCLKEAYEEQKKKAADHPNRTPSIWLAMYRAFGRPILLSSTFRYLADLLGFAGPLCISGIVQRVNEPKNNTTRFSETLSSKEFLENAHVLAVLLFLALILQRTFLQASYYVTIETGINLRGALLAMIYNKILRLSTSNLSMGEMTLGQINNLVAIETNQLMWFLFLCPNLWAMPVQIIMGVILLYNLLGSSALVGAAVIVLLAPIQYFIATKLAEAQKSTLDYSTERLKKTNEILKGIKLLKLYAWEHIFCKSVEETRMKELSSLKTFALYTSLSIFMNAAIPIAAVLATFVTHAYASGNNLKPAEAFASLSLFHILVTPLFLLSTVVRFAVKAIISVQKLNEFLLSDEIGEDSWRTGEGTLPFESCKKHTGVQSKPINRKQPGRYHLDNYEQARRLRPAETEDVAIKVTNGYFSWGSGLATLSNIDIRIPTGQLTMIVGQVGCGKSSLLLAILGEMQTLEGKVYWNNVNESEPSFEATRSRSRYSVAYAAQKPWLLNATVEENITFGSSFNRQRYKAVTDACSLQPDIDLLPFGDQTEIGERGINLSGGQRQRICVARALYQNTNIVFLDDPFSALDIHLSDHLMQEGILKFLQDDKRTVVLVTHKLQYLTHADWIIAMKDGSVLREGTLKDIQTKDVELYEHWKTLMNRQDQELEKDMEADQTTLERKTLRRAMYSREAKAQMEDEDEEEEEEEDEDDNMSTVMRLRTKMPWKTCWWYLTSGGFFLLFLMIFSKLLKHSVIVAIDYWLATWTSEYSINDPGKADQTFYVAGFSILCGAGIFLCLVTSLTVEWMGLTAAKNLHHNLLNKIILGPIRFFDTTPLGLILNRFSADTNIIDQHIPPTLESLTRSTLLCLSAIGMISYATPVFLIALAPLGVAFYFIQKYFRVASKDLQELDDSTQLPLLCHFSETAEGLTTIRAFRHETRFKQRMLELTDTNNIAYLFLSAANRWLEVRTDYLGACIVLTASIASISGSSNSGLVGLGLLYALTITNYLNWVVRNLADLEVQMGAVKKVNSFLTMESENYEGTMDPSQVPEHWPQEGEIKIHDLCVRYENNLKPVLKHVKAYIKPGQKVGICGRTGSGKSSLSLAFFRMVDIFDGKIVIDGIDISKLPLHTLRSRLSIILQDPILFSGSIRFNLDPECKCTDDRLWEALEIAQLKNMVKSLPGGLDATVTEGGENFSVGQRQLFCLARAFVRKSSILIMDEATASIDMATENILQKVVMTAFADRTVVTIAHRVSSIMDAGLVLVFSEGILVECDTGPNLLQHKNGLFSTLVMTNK

`CCc1c(C(=O)NN2CCCCC2)nc(-c2ccccc2Cl)n1-c1ccc(Cl)cn1` [2-(2-Chloro-phenyl)-1-(5-chloro-pyridin-2-yl)-5-ethyl-1H-imidazole-4-carboxylic acid piperidin-1-ylamide] was tested, and the pKi (rat SUR2A) was 4.8 and the Ki (hamster SUR1) was 100 µM.
`CCCCC/C=C\C/C=C\C/C=C\C/C=C\CCCC(=O)OC(CO)CO` [2-AG, Icosa-5,8,11,14-tetraenoic acid 2-hydroxy-1-hydroxymethyl-ethyl ester, reference compound] gave a Ki (hamster SUR1) of 2.51 µM and a Ki [1, 2] of 3.98 µM.
`CCCCC(C)(O)c1nc(-c2ccc(Cl)cc2Cl)n(-c2ccc(Cl)cc2)c1C` (stereo not drawn) [2-[1-(4-Chloro-phenyl)-2-(2,4-dichloro-phenyl)-5-methyl-1H-imidazol-4-yl]-hexan-2-ol] showed a pKi (rat SUR2A) of 5.3 and a Ki (hamster SUR1) of 1.58 µM.
`CCC1CN=C(N2CC(c3ccccc3)C(c3ccc(Cl)cc3)=N2)O1` (stereo not drawn) [2-[3-(4-Chloro-phenyl)-4-phenyl-4,5-dihydro-pyrazol-1-yl]-5-ethyl-4,5-dihydro-oxazole] showed a pKi (rat SUR2A) of 4.4 and a Ki (hamster SUR1) of 3.16 µM.
For `Cn1c(C(=O)NC2CCCCC2)nc(-c2ccc(Cl)cc2)c1-c1ccc(Cl)cc1Cl` [4-(4-Chloro-phenyl)-5-(2,4-dichloro-phenyl)-1-methyl-1H-imidazole-2-carboxylic acid cyclohexylamide], the pKi (rat SUR2A; [3]) was 4.7 and the Ki (hamster SUR1) was 100 µM.
With `O=C(NS(=O)(=O)c1ccc(Cl)cc1)N1CC(c2ccccc2)C(c2ccc(Cl)cc2)=N1` (stereo not drawn) [4-Chloro-N-[3-(4-chloro-phenyl)-4-phenyl-4,5-dihydro-pyrazole-1-carbonyl]-benzenesulfonamide] the pKi (rat SUR2A) was 4.8 and the Ki (hamster SUR1) was 3.16 µM.
In the case of `N#CCCNC(=NS(=O)(=O)c1ccc(Cl)cc1)N1CC(c2ccccc2)C(c2ccc(Cl)cc2)=N1` (stereo not drawn) [4-Chloro-N-[[3-(4-chloro-phenyl)-4-phenyl-4,5-dihydro-pyrazol-1-yl]-(2-cyano-ethylamino)-methylene]-benzene sulfonamide], the pKi (rat SUR2A) is reported as 5.9 and the Ki (hamster SUR1) is reported as 0.2 µM.
`CCNCCN/C(=N\S(=O)(=O)c1ccc(Cl)cc1)N1CC(c2ccccc2)C(c2ccc(Cl)cc2)=N1` (stereo not drawn) [4-Chloro-N-[[3-(4-chloro-phenyl)-4-phenyl-4,5-dihydro-pyrazol-1-yl]-(2-ethylamino-ethylamino)-methylene]-Benzenesulfonamide] was tested, and the pKi (rat SUR2A) was 5.3 and the Ki (hamster SUR1) was 7.94 µM.
In the case of `O=S(=O)(N=C(NCCCCN1CCCC1)N1CC(c2ccccc2)C(c2ccc(Cl)cc2)=N1)c1ccc(Cl)cc1` (stereo not drawn) [4-Chloro-N-[[3-(4-chloro-phenyl)-4-phenyl-4,5-dihydro-pyrazol-1-yl]-(4-pyrrolidin-1-yl-butylamino)-methylene]-benzenesulfonamide], the pKi (rat SUR2A) is reported as 5.4 and the Ki (hamster SUR1) is reported as 50.1 µM.
`CON(C)C(=NS(=O)(=O)c1ccc(Cl)cc1)N1CC(c2ccccc2)C(c2ccc(Cl)cc2)=N1` (stereo not drawn) [4-Chloro-N-[[3-(4-chloro-phenyl)-4-phenyl-4,5-dihydro-pyrazol-1-yl]-(methoxy-methyl-amino)-methylene]-benzenesulfonamide] was tested, and the pKi (rat SUR2A) was 5.9 and the Ki (hamster SUR1) was 1.26 µM.
`O=S(=O)(N=C(NC1CCNCC1)N1CC(c2ccccc2)C(c2ccc(Cl)cc2)=N1)c1ccc(Cl)cc1` (stereo not drawn) [4-Chloro-N-[[3-(4-chloro-phenyl)-4-phenyl-4,5-dihydro-pyrazol-1-yl]-(piperidin-4-ylamino)-methylene]-benzenesulfonamide] was tested, and the pKi (rat SUR2A) was 4.6 and the Ki (hamster SUR1) was 31.6 µM.
With `CON/C(=N\S(=O)(=O)c1ccc(Cl)cc1)N1C[C@H](c2cccc(F)c2)C(c2ccc(Cl)cc2)=N1` [4-Chloro-N-{[3-(4-chloro-phenyl)-4-(3-fluoro-phenyl)-4,5-dihydro-pyrazol-1-yl]-methoxyamino-methylene}-benzenesulfonamide] the pKi (rat SUR2A) was 6.1 and the Ki (hamster SUR1) was 2.51 µM.
Compound `N#Cc1cc(-c2ccc(Br)cc2)n(-c2ccc(Cl)cc2Cl)n1` [5-(4-Bromo-phenyl)-1-(2,4-dichloro-phenyl)-1H-pyrazole-3-carbonitrile] has a pKi (rat SUR2A) of 5.4 and a Ki (hamster SUR1) of 100 µM.
Work on `O=C(NN1CCCC1)c1nc(-c2ccc(Cl)cc2)n(-c2ccc(Cl)cc2Cl)n1` [5-(4-Chloro-phenyl)-1-(2,4-dichloro-phenyl)-1H-[1,2,4]triazole-3-carboxylic acid pyrrolidin-1-ylamide] yielded a pKi (rat SUR2A) of 4.4 and a Ki (hamster SUR1) of 100 µM.
For `O=C(NN1CCCCC1)c1nc(-c2ccc(Cl)cc2Cl)c(-c2ccc(Cl)cc2)s1` [5-(4-Chloro-phenyl)-4-(2,4-dichloro-phenyl)-thiazole-2-carboxylic acid piperidin-1-ylamide], the pKi (rat SUR2A) was 5.5 and the Ki (hamster SUR1) was 2 µM.
In the case of `CN/C(=N\S(=O)(=O)N1CCCCCC1)N1CC(c2ccccc2)C(c2ccc(Cl)cc2)=N1` (stereo not drawn) [Azepane-1-sulfonic acid [3-(4-chloro-phenyl)-4-phenyl-4,5-dihydro-pyrazol-1-yl]-methylamino-methyleneamide], the pKi (rat SUR2A) is reported as 4.9 and the Ki (hamster SUR1) is reported as 25.1 µM.
Work on `CNC(=NS(=O)(=O)N1CCOCC1)C1=NN(c2ccc(Cl)cc2Cl)C(c2ccccc2)C1` (stereo not drawn) [Morpholine-4-sulfonic acid [1-(2,4-dichloro-phenyl)-5-phenyl-4,5-dihydro-1H-pyrazol-3-yl]-methylamino-methyleneamide] yielded a pKi (rat SUR2A) of 5.0 and a Ki (hamster SUR1) of 5.01 µM.
`CCN(CC)S(=O)(=O)N=C(NC)N1CC(O)(c2ccccc2)C(c2ccc(Cl)cc2)=N1` (stereo not drawn) [N,N-Diethylamino-1-sulfonic acid [3-(4-chloro-phenyl)-4-hydroxy-4-phenyl-4,5-dihydro-pyrazol-1-yl]-methylamino-methyleneamide] gave a pKi (rat SUR2A) of 5.9 and a Ki (hamster SUR1) of 100 µM.
Compound `CCN(CC)S(=O)(=O)N=C(SC)N1CC(c2ccccc2)C(c2ccc(Cl)cc2)=N1` (stereo not drawn) [N,N-Diethylamino-1-sulfonic acid [3-(4-chloro-phenyl)-4-phenyl-4,5-dihydro-pyrazol-1-yl]-methylsulfanyl-methyleneamide] has a pKi (rat SUR2A) of 4.7 and a Ki (hamster SUR1) of 100 µM.
`CN(C)S(=O)(=O)N=C(NCCF)N1CC(c2ccccc2)C(c2ccc(Cl)cc2)=N1` (stereo not drawn) [N,N-Dimethylamino-1-sulfonic acid [3-(4-chloro-phenyl)-4-phenyl-4,5-dihydro-pyrazol-1-yl]-(2-fluoro-ethylamino)-methyleneamide] gave a pKi (rat SUR2A) of 4.0 and a Ki (hamster SUR1) of 50.1 µM.
In the case of `CCCCCc1nc(C(=O)NC23CC4CC(CC(C4)C2)C3)sc1-c1ccccc1` [N-Adamantyl-4-pentyl-5-phenyl-thiazole-2-carboxamide], the pKi (rat SUR2A; [3]) is reported as 4.0 and the Ki (hamster SUR1) is reported as 100 µM.
`CNC(=NS(=O)(=O)c1ccc(C(F)(F)F)cc1)N1CC(c2ccccc2)C(c2ccc(Cl)cc2)=N1` (stereo not drawn) [N-{[3-(4-Chloro-phenyl)-4-phenyl-4,5-dihydro-pyrazol-1-yl]-methylamino-methylene}-4-trifluoromethyl-benzene-sulfonamide] was tested, and the pKi (rat SUR2A) was 4.2 and the Ki (hamster SUR1) was 0.501 µM.
`CCCCC/C=C\C/C=C\C/C=C\C/C=C\CCCCOC(CO)CO` [Noladineether, reference compound] was tested, and the Ki (hamster SUR1) was 3.98 µM and the Ki [1] was 0.251 µM.
For `Cc1c(NC(=O)N2CCCCC2)nn(-c2ccc(Cl)cc2Cl)c1-c1ccc(Cl)cc1` [Piperidine-1-carboxylic acid [5-(4-chloro-phenyl)-1-(2,4-dichloro-phenyl)-4-methyl-1H-pyrazol-3-yl]-amide], the pKi (rat SUR2A) was 4.7 and the Ki (hamster SUR1) was 20 µM.
`CCc1c(C(=O)NN2CCCCC2)nn(-c2ccc(Cl)cc2Cl)c1-c1ccc(Br)cc1` [SR-147778, 5-(4-Bromo-phenyl)-1-(2,4-dichloro-phenyl)-4-ethyl-1H-pyrazole-3-carboxylic acid piperidin-1-ylamide, reference compound] showed a Ki (hamster SUR1) of 3.16 µM and a Ki [1, 2] of 1.26 µM.
`O=S(=O)(N=C(NCCF)N1CC(c2ccccc2)C(c2ccc(Cl)cc2)=N1)c1ccc(Cl)cc1` (stereo not drawn) [drawing 45, 4-Chloro-N-[[3-(4-chloro-phenyl)-4-phenyl-4,5-dihydro-pyrazol-1-yl]-(2-fluoro-ethylamino)-methylene]-benzenesulfonamide] gave a pKi (rat SUR2A) of 4.6 and a Ki (hamster SUR1) of 25.1 µM.
For `O=S(=O)(N=C(NCCF)N1CC(c2ccccc2)C(c2ccc(Cl)cc2)=N1)c1ccc(Cl)cc1` (stereo not drawn) [drawing 46], the pKi (rat SUR2A) was 5.0 and the “Affinity to SUR 1” value (hamster SUR1) was 4.6.
